System: rabbit skeletal myofibrils (fast skeletal myofibrils)
Assay: Activation of fast skeletal myofibrils (PUMA assay, PK/LDH-coupled ATPase at pCa25)
Assay type: biochemical
Details: procedure of Example 39
Outline: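 ATPase activity of Triton-washed rabbit skeletal myofibrils, roughly 90% fast fibres, tracked by NADH loss at 340 nm through a PK/LDH-coupled ADP-regenerating system. Calcium set to 25% of maximal activity (pCa25), in PIPES 12 mM pH 6.8 with 2 mM MgCl2 and 1 mM DTT; AC1.4 reported.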

Mean AC1.4 (median AC1.4 class)	Mean AC1.4 (median AC1.4 reported as class)	Structure (SMILES)
B (B=1-10 uM)	–	CC(C)(C)OC(=O)N1CC(F)(F)CC1C(=O)NCc1cnc(-c2ccc(NCC3(c4ncccc4F)CCC3)nn2)s1 [tert-butyl (2S)-4,4-difluoro-2-[N-({2-[6-({[(3-fluoro(2-pyridyl))cyclobutyl]methyl}ami-no)pyridazin-3-yl](1,3-thiazol-5-yl)}methyl)carbamoyl]pyrrolidine-carboxylate]
A (A=<1 uM)	–	O=C(NCCO)c1cnc(-c2ccc(NCC3(c4ncccc4F)CCC3)nn2)s1 [{2-[6-({[(3-fluoro(2-pyridyl))cyclobutyl]methyl}ami-no)pyridazin-3-yl](1,3-thiazol-5-yl)}-N-(2-hydroxyethyl)carboxamide]
B (B=1-10 uM)	–	O=C(NC1CCNC1=O)c1cnc(-c2ccc(NCC3(c4ncccc4F)CCC3)nn2)s1 (centres unmarked) [{2-[6-({[(3-fluoro(2-pyridyl))cyclobutyl]methyl}ami-no)pyridazin-3-yl](1,3-thiazol-5-yl)}-N-(2-oxopyrrolidin-3-yl)carboxamide]
B (B=1-10 uM)	–	CC(C)NC(=O)c1cnc(-c2ccc(NCC3(c4ncccc4F)CCC3)nn2)s1 [{2-[6-({[(3-fluoro(2-pyridyl))cyclobutyl]methyl}ami-no)pyridazin-3-yl](1,3-thiazol-5-yl)}-N-(methylethyl)carboxamide]
B (B=1-10 uM)	–	O=C(NCC1CCCO1)c1cnc(-c2ccc(NCC3(c4ncccc4F)CCC3)nn2)s1 (centres unmarked) [{2-[6-({[(3-fluoro(2-pyridyl))cyclobutyl]methyl}ami-no)pyridazin-3-yl](1,3-thiazol-5-yl)}-N-(oxolan-2-ylmethyl)carboxamide]
A (A=<1 uM)	–	CS(=O)(=O)CCNC(=O)c1cnc(-c2ccc(NCC3(c4ncccc4F)CCC3)nn2)s1 [{2-[6-({[(3-fluoro(2-pyridyl))cyclobutyl]methyl}ami-no)pyridazin-3-yl](1,3-thiazol-5-yl)}-N-[2-(methylsulfonyl)ethyl]carboxamide]
A (A=<1 uM)	–	CNC(=O)c1cnc(-c2ccc(NCC3(c4ncccc4F)CCC3)nn2)s1 [{2-[6-({[(3-fluoro(2-pyridyl))cyclobutyl]methyl}ami-no)pyridazin-3-yl](1,3-thiazol-5-yl)}-N-methylcarboxamide]
A (A=<1 uM)	–	O=C(NC1CCNC1)c1cnc(-c2ccc(NCC3(c4ncccc4F)CCC3)nn2)s1 (centres unmarked) [{2-[6-({[(3-fluoro(2-pyridyl))cyclobutyl]methyl}ami-no)pyridazin-3-yl](1,3-thiazol-5-yl)}-N-pyrrolidin-3-ylcarboxamide]
–	B (B=1-10 uM)	Cc1cc(NCC2(c3ncccc3F)CCC2)nnc1-c1ncc(CO)s1 [{2-[6-({[(3-fluoro(2-pyridyl))cyclobutyl]methyl}amino)-4-methylpyridazin-3-yl]-1,3-thiazol-5-yl}methan-1-ol]
B (B=1-10 uM)	–	OCc1cnc(-c2ccc(NCC3(c4ncccc4F)CCC3)nn2)s1 [{2-[6-({[(3-fluoro-2-pyridyl)cyclobutyl]methyl}ami-no)pyridazin-3-yl]-1,3-thiazol-5-yl}methan-1-ol]
–	C (C=10-20 uM)	CNC(=O)c1cc(-c2ccc(NC[C@]3(c4ncccc4F)C[C@H](F)C3)nn2)ccc1F [{2-fluoro-5-[6-({[3-fluoro-1-(3-fluoro(2-pyridyl))cyclobutyl]methyl}ami-no)pyridazin-3-yl]phenyl}-N-methylcarboxamide]
A (A=<1 uM)	–	CC(C)(Nc1ccc(-c2cccc(NS(C)(=O)=O)c2)nn1)c1cccc(OC(F)F)n1 [{3-[6-({1-[6-(difluoromethoxy)(2-pyridyl)]-isopropyl}amino)pyridazin-3-yl]phenyl}(methylsulfonyl)amine]
–	B (B=1-10 uM)	CNC(=O)c1cc(C)cc(-c2ccc(NC[C@]3(c4ncccc4F)C[C@H](F)C3)nn2)c1O [{3-[6-({[3-fluoro-1-(3-fluoro(2-pyridyl))cyclobutyl]methyl}ami-no)pyridazin-3-yl]-2-hydroxy-5-methylphenyl}-N-methylcarboxamide]
–	A (A=<1 uM)	CNC(=O)c1cccc(-c2ccc(NC[C@]3(c4ncccc4F)C[C@H](F)C3)nn2)c1O [{3-[6-({[3-fluoro-1-(3-fluoro(2-pyridyl))cyclobutyl]methyl}ami-no)pyridazin-3-yl]-2-hydroxyphenyl}-N-methylcarboxamide]
–	B (B=1-10 uM)	CNC(=O)c1ccc(O)c(-c2ccc(NC[C@]3(c4ncccc4F)C[C@H](F)C3)nn2)c1 [{3-[6-({[3-fluoro-1-(3-fluoro(2-pyridyl))cyclobutyl]methyl}ami-no)pyridazin-3-yl]-4-hydroxyphenyl}-N-methylcarboxamide]
–	B (B=1-10 uM)	CNC(=O)c1cc(C)cc(-c2ccc(NC[C@]3(c4ncccc4F)C[C@H](F)C3)nn2)c1 [{3-[6-({[3-fluoro-1-(3-fluoro(2-pyridyl))cyclobutyl]methyl}ami-no)pyridazin-3-yl]-5-methylphenyl}-N-methylcarboxamide]
–	B (B=1-10 uM)	CN1CC(NC(=O)c2cccc(-c3ccc(NC[C@]4(c5ncccc5F)C[C@H](F)C4)nn3)c2)C1 [{3-[6-({[3-fluoro-1-(3-fluoro(2-pyridyl))cyclobutyl]methyl}ami-no)pyridazin-3-yl]phenyl}-N-(1-methylazetidin-3-yl)carboxamide]
–	B (B=1-10 uM)	CC(C)(O)CNC(=O)c1cccc(-c2ccc(NC[C@]3(c4ncccc4F)C[C@H](F)C3)nn2)c1 [{3-[6-({[3-fluoro-1-(3-fluoro(2-pyridyl))cyclobutyl]methyl}ami-no)pyridazin-3-yl]phenyl}-N-(2-hydroxy-2-methylpropyl)carboxamide]
–	B (B=1-10 uM)	CC1(O)CC(NC(=O)c2cccc(-c3ccc(NC[C@]4(c5ncccc5F)C[C@H](F)C4)nn3)c2)C1 (some centres unmarked) [{3-[6-({[3-fluoro-1-(3-fluoro(2-pyridyl))cyclobutyl]methyl}ami-no)pyridazin-3-yl]phenyl}-N-(3-hydroxy-3-methylcyclobutyl)carboxamide]
–	B (B=1-10 uM)	O=C(NC1CC(O)C1)c1cccc(-c2ccc(NC[C@]3(c4ncccc4F)C[C@H](F)C3)nn2)c1 (some centres unmarked) [{3-[6-({[3-fluoro-1-(3-fluoro(2-pyridyl))cyclobutyl]methyl}ami-no)pyridazin-3-yl]phenyl}-N-(3-hydroxycyclobutyl)carboxamide]
–	B (B=1-10 uM)	CS(=O)(=O)N1CC(NC(=O)c2cccc(-c3ccc(NC[C@]4(c5ncccc5F)C[C@H](F)C4)nn3)c2)C1 [{3-[6-({[3-fluoro-1-(3-fluoro(2-pyridyl))cyclobutyl]methyl}ami-no)pyridazin-3-yl]phenyl}-N-[1-(methylsulfonyl)azetidin-3-yl]carboxamide]
–	B (B=1-10 uM)	O=C(NC(CO)CO)c1cccc(-c2ccc(NC[C@]3(c4ncccc4F)C[C@H](F)C3)nn2)c1 [{3-[6-({[3-fluoro-1-(3-fluoro(2-pyridyl))cyclobutyl]methyl}ami-no)pyridazin-3-yl]phenyl}-N-[2-hydroxy-1-(hydroxymethyl)ethyl]carboxamide]
–	A (A=<1 uM)	O=C(NCC1(O)CC1)c1cccc(-c2ccc(NC[C@]3(c4ncccc4F)C[C@H](F)C3)nn2)c1 [{3-[6-({[3-fluoro-1-(3-fluoro(2-pyridyl))cyclobutyl]methyl}ami-no)pyridazin-3-yl]phenyl}-N-[(hydroxycyclopropyl)methyl]car-boxamide]
